Experimental data as given in patent US8114406B2, “Peptides and their utility in modulation of behavior of cells expressing α3β1 integrins” (The United States of America as represented by the …, priority 1999, dated 2012).
Read-outs that look alike come from different tables or passages of the source. Where a SMILES comes first, the peptide text is derived from it. Where no end group is shown, it is not given here.

Legend:
[1] = test system: MDA-MB-435 breast carcinoma cells; assay: Inhibition of MDA-MB-435 cell adhesion to immobilized peptide 678 (microscopic adhesion assay); format: cell-based, human
Procedure: (§1) Adhesion assays of cells other than small cell lung carcinoma (SCLC)-Adhesion was measured on polystyrene or glass substrates coated with peptides or proteins as previously described (Guo et al., 1992). Peptides dissolved in PBS at 0.4 to 50 μM were incubated in polystyrene microliter plate wells overnight at 4° C. The wells were washed 3 times with distilled water. Adsorbed peptide was quantified using the BCA assay (Pierce Chemical) measuring absorbance at 570 and 630 nm as described by the supplier's protocol. The assay for adsorption was calibrated using purified peptide in solution as a standard. After blocking with 1% BSA in Dulbecco's PBS, adhesion assays were performed by adding cells suspended in DMEM (BAE cells) or medium 199 (human cells) containing 1 mg/ml BSA. Cell attachment and spreading was quantified microscopically.

HUVEC = HUVEC spreading on coated substrates; format: cell-based, human
Procedure: FIGS. 14A, 14B and 14C display α3β1 and αvβ3 integrin-mediated spreading of endothelial cells on thrombospondin-1. […] Results are expressed as percent of the response for untreated cells, mean±S.D., n=3.
as §1

[2] = test system: MDA-MB-435 breast carcinoma cells
Procedure: MDA-MB-435 cell adhesion to microliter plate wells coated with 5 uM peptide 678 was determined in the presence of the indicated concentrations of soluble carboxamidomethyl-peptide 716 or peptide 716 covalently linked to FICOLL™ as previously described (Guo et al., 1997). After washing twice to remove unattached cells, adherent cells were quantified by detection of cellular hexosaminidase using p-nitrophenyl-N-acetylglucosaminide as substrate. Released p-nitrophenol was detected by absorbance at 405 nm. Results are mean+/−SD, n=3.
In this case, the adherent cells are quantified by detection of cellular hexosaminidase using p-nitrophenyl-N-acetylglucosaminidine as substrate. Released p-nitrophenol is detected by absorbance at 405 nm.

[3] = test system: MDA-MB-435 breast carcinoma cells; assay: Direct adhesion of MDA-MB-435 cells to peptides adsorbed on polystyrene; format: cell-based, human; details: peptides adsorbed at 10 μM (FIG. 2)
Procedure: as §1

[4] = test system: chick chorioallantoic membrane (CAM) angiogenesis; assay: Chick chorioallantoic membrane (CAM) angiogenesis assay; format: in vivo, chicken; details: relative to control gels, mean ± SD
Procedure: Fertilized Leghorn chicken eggs were obtained from Ramona Duck farm (Westminster, Calif.). At day 3 of development, the embryos were placed on 100 mm petri dishes. Assays were performed as previously described (Iruela-Arispe et al., 1999). […] Peptides were filtered on Centricon P100 prior to their analysis on the CAM assays to eliminate traces of endotoxin. Pellets were applied to the outer ⅓ of the CAM, and the assay was performed for 24 h. Detection of capillary growth was done by injection of FITC-dextran in the bloodstream and observation of the pellets under a fluorescent inverted microscope. Positive controls (growth factors and vehicle), as well as negative controls (vehicle alone) were placed in the same CAM and used as reference of 100% stimulation or baseline inhibition (0%), and response to the peptides was determined according to these internal controls. Assays were performed in duplicate in each CAM and in four independent CAMs (total of 8 pellets).

H69 SCLC cells = assay: SCLC cell adhesion to extracellular matrix proteins, H69; format: cell-based, human
Procedure: (§2) For adhesion assays of SCLC, these cells were washed once with RPMI 1640 and centrifuged at 400×g for 3 min. The pellet was suspended in 2.5 mM EDTA in PBS, pH 7.4 and incubated for 10 min at 37° C. After trituration three times and centrifugation, the cells were resuspended in RPMI 1640 containing 0.1% BSA (Sigma Co. St Louis, Mo.).
(§3) Adhesion of SCLC cells to extracellular matrix proteins. Extracellular matrix proteins or peptides in Dulbecco's PBS were adsorbed onto polystyrene by incubating overnight at 4° C. […] The supernatant fluid was removed, and the dishes were incubated with Tris-gelatin (ICN) (50 mM Tris-HCl, 110 mM NaCl, 5 mM CaCl2, 0.1 mM phenylmethylsulfonyl fluoride, 0.2% gelatin and 0.02% NaN3, pH 7.8) or Dulbeccos PBS with 1% BSA, as indicated, for 30 min to minimize nonspecific adhesion. The disks were washed twice with cold PBS, pH 7.2 and overlayed with dissociated SCLC cells prepared as described above at a density of 2.5×10^5/cm^2.
(§4) For inhibition studies with SCLC cells, inhibitors or antibodies were added and incubated with SCLC cells at the indicated concentrations. After incubation for 60-90 min at 37° C., the disks were washed by dipping six times in PBS, pH 7.2, fixed with 1% glutaraldehyde in PBS, pH 7.2, and stained with Diff-Quik. Attached cells were counted microscopically.

N417 SCLC cells = assay: SCLC cell adhesion to extracellular matrix proteins, N417; format: cell-based, human
Procedure: as §2, §3, §4

H345 SCLC cells = assay: SCLC cell adhesion to extracellular matrix proteins, H345; format: cell-based, human
Procedure: as §2, §3, §4

[5] = Table 3, 5 μM peptide 678, read-out: IC50 (μM), inhibition of MDA-MB-435 cell adhesion to immobilized peptide 678
[6] = microscopic adhesion assay, polystyrene coated with 5 μM peptide 678, peptides in solution, read-out: Inhibition of peptide 678 (IC50)
[7] = substrate coated at 6.2 μg/ml, mean ± S.D., n = 3

Procedure for BAE cells: Direct adhesion of BAE cells to the adsorbed peptides or uncoated substrate (control) are presented as mean±SD, n=3. […] Two flasks of BAE cells were grown to confluence. One flask was harvested and replated in fresh medium at 25% confluency. Fresh medium was added at the same time to the second flask. After 16 h, cells from both flasks were dissociated using EDTA and adhesion was measured on substrates coated with 40 μg/ml TSP1, 10 μg/ml vitronectin, 20 μg/ml plasma fibronectin, or 5 μg/ml type I collagen. The percent spread cells after 60 min is presented as mean±SD, n=3 for a representative experiment.
Results are presented as mean±SD, n=3. […] The percent spread cells was determined at 60 min.

## CC(C)C[C@H](NC(=O)[C@H](CCCNC(=N)N)NC(=O)[C@H](CC(C)C)NC(=O)[C@H](CC(N)=O)NC(=O)[C@H](CCCNC(=N)N)NC(=O)[C@@H](NC(=O)[C@H](CS)NC(=O)CNC(=O)[C@H](CCCNC(=N)N)NC(=O)[C@H](Cc1ccccc1)NC(=O)[C@H](CO)NC(=O)[C@H](C)NC(=O)[C@H](CCCNC(=N)N)NC(=O)[C@H](CO)NC(=O)[C@H](CO)NC(=O)[C@H](CC(C)C)NC(=O)[C@H](CS)NC(=O)[C@H](CC(N)=O)NC(=O)[C@H](CCC(N)=O)NC(=O)[C@@H](N)CCCCN)C(C)C)C(=O)N[C@@H](CO)C(=O)N[C@@H](CCCNC(=N)N)C(=O)O [Peptide 675, reference compound] (H-KQNCLSSRASFRGCVRNLRLSR-OH; N-terminus and C-terminus assumed)
[1]; read-out: IC50, inhibition of adhesion to either peptide or TSP1, tested in solution, data not shown
  IC50: 700 µM

## CN(Cc1nc2ccccc2[nH]1)C(=O)c1ccc2c(c1)CN(C)C(=O)[C@H](CC(=O)O)N2 [SB223245, reference compound]
HUVEC
  inhibition of HUVEC spreading on TSP1: did not significantly inhibit
  inhibition of HUVEC spreading on vitronectin: completely inhibited
BAE cells; single agent
  inhibition of BAE cell spreading on TSP1: partially inhibited

## AQGVLQNVRFVF [Peptide 697]
[1]; [5]
  IC50: 5 µM
[1]; [6]
  IC50: 5 µM

## Ac-LQNVRF-NH2 [Peptide 681, ac-LQNVRF-am]
[1]; [6]
  IC50: 500 µM

## Ac-QGVLQNVRF-OH [Peptide 704]
[2]
  IC50: ~100 µM

## ELTGAARKGSGRRLVKGPD [Hepl, focal adhesion disrupting peptide from the amino terminal domain of TSP1]
[3]
  promotion of MDA-MB-435 cell adhesion: did not promote

## FAGVLQNVRFVF [Peptide 696]
[2]
  IC50: 12 µM
[1]; [5]
  IC50: 1.8 µM
[1]; [6]
  IC50: 1.8 µM
[4]; 5 μM peptide
  Angiogenic response (% inhibition): 5 ± 2%
[4]; 10 μM peptide
  Angiogenic response (% inhibition): 9 ± 3%
[4]; 20 μM peptide
  Angiogenic response (% inhibition): 12 ± 4%

## FQGVAQNVRFVF [Peptide 695]
[1]; [5]
  IC50: 5 µM
[1]; [6]
  IC50: 5 µM

## FQGVLANVRFVF [Peptide 687]
[1]; [5]
  IC50: 3 µM
[1]; [6]
  IC50: 3 µM

## FQGVLNNVRFVF [Peptide 698]
[1]; [6]
  IC50: 3 µM

## FQGVLQNARFVF [Peptide 691]
[1]; [5]
  IC50: > 300 µM
[1]; [6]
  IC50: > 300 µM

## FQGVLQNVHFVF [Peptide 694]
[1]; [5]
  IC50: 54 µM
[1]; [6]
  IC50: 54 µM

## FQGVLQNVKFVF [Peptide 702]
[2]
  IC50: 25 µM
[1]; [5]
  IC50: 6 µM
[1]; [6]
  IC50: 6 µM

## FQGVLQNVQFVF [Peptide 703]
[2]
  IC50: 300 µM
[1]; [5]
  IC50: > 100 µM
[1]; [6]
  IC50: > 100 µM

## FQGVLQNVRAVF [Peptide 692]
[1]; [5]
  IC50: 18 µM
[1]; [6]
  IC50: 18 µM

## FQGVLQNVRF [Peptide 682]
[1]; [6]
  IC50: 6 µM

## FQGVLQNVRFVA [Peptide 693]
[1]; [5]
  IC50: 27 µM
[1]; [6]
  IC50: 27 µM

## GRGDSP [reference compound]
BAE cells; 300 μM GRGDSP (FIG. 14A)
  spreading response on TSP1 resistant to the peptide: Approximately 20%
BAE cells; combination with peptide 678
  inhibition of BAE cell spreading on TSP1, GRGDSP combined with the α3β1 binding peptide: completely inhibited

## KRFKQDGGWSHWSPWSS [Peptide 246]
[3]
  promotion of MDA-MB-435 cell adhesion: promoted adhesion

## KRFYVVMWKK [Peptide 4N1K]
[3]
  promotion of MDA-MB-435 cell adhesion: promoted adhesion

## LQNVRFVF [Peptide 684]
[1]; [6]
  IC50: 300 µM

## NGVQYRNC [Peptide 500]
[3]
  promotion of MDA-MB-435 cell adhesion: weaker adhesive activities

## QGVLQNVR [Peptide 683]
[1]; [6]
  IC50: > 300 µM

## QGVLQNVRFVF [Peptide 685]
[1]; [6]
  IC50: 24 µM

## SPWSSCSVTCGDGVITRIR [Mal-II]
[3]
  promotion of MDA-MB-435 cell adhesion: weaker adhesive activities

## TPGQVRTLWHDP [Peptide 701]
[1]; [6]
  IC50: > 300 µM

## VLQNVRFVF [Peptide 688]
[1]; [6]
  IC50: > 100 µM

## fibronectin
H69 SCLC cells; 12.5 μg/ml
  SCLC cell adhesion: 5 ± 1 cells/mm2
H69 SCLC cells; 25 μg/ml
  SCLC cell adhesion: 13 ± 3 cells/mm2
H69 SCLC cells; 50 μg/ml
  SCLC cell adhesion: 22 ± 7 cells/mm2
H69 SCLC cells; [7]
  SCLC cell adhesion: 1 ± 1 cells/mm2
N417 SCLC cells; 6.2 μg/ml
  SCLC cell adhesion: 19 ± 2 cells/mm2
N417 SCLC cells; 12.5 μg/ml
  SCLC cell adhesion: 48 ± 4 cells/mm2
N417 SCLC cells; 25 μg/ml
  SCLC cell adhesion: 86 ± 6 cells/mm2
N417 SCLC cells; 50 μg/ml
  SCLC cell adhesion: 78 ± 2 cells/mm2
H345 SCLC cells; 6.2 μg/ml
  SCLC cell adhesion: 0 cells/mm2
H345 SCLC cells; 12.5 μg/ml
  SCLC cell adhesion: 6 ± 2 cells/mm2
H345 SCLC cells; 25 μg/ml
  SCLC cell adhesion: 25 ± 5 cells/mm2
H345 SCLC cells; 50 μg/ml
  SCLC cell adhesion: 17 ± 5 cells/mm2

## laminin: murine laminin-1 purified from the EHS tumor
H69 SCLC cells; 12.5 μg/ml
  SCLC cell adhesion: 16 ± 1 cells/mm2
H69 SCLC cells; 25 μg/ml
  SCLC cell adhesion: 82 ± 8 cells/mm2
H69 SCLC cells; 50 μg/ml
  SCLC cell adhesion: 108 ± 11 cells/mm2
H69 SCLC cells; [7]
  SCLC cell adhesion: 1 ± 1 cells/mm2
N417 SCLC cells; 6.2 μg/ml
  SCLC cell adhesion: 5 ± 1 cells/mm2
N417 SCLC cells; 12.5 μg/ml
  SCLC cell adhesion: 78 ± 3 cells/mm2
N417 SCLC cells; 25 μg/ml
  SCLC cell adhesion: 151 ± 6 cells/mm2
N417 SCLC cells; 50 μg/ml
  SCLC cell adhesion: 160 ± 3 cells/mm2
H345 SCLC cells; 6.2 μg/ml
  SCLC cell adhesion: 6 ± 2 cells/mm2
H345 SCLC cells; 12.5 μg/ml
  SCLC cell adhesion: 8 ± 1 cells/mm2
H345 SCLC cells; 25 μg/ml
  SCLC cell adhesion: 151 ± 31 cells/mm2
H345 SCLC cells; 50 μg/ml
  SCLC cell adhesion: 148 ± 9 cells/mm2

## peptide 716 conjugated to FICOLL: peptide 716 covalently linked to FICOLL (polysucrose) (FQGVLQNVRFVF; not fully specified (N-terminus); also: number of peptides per FICOLL polymer not given here)
[2]; hexosaminidase detection
  inhibition of adhesion of MDA-MB-435 cells to peptide 678, compared to free peptide 716: enhanced

B1: vitronectin: human vitronectin from Sigma (protein, UniProt P04004 20-478, looked up)
Vitronectin: DQESCKGRCTEGFNVDKKCQCDELCSYYQSCCTDYTAECKPQVTRGDVFTMPEDEYTVYDDGEEKNNATVHEQVGGPSLTSDLQAQSKGNPEQTPVLKPEEEAPAPEVGASKPEGIDSRPETLHPGRPQPPAEEELCSGKPFDAFTDLKNGSLFAFRGQYCYELDEKAVRPGYPKLIRDVWGIEGPIDAAFTRINCQGKTYLFKGSQYWRFEDGVLDPDYPRNISDGFDGIPDNVDAALALPAHSYSGRERVYFFKGKQYWEYQFQHQPSQEECEGSSLSAVFEHFAMMQRDSWEDIFELLFWGRTSAGTRQPQFISRDWHGVPGQVDAAMAGRIYISGMAPRPSLAKKQRFRHRNRKGYRSQRGHSRGRNQNSRRPSRATWLSLFSSEESNLGANNYDDYRMDWLVPATCEPIQSVFFFSGDKYYRVNLRTRRVDTVDPPYPRSIAQYWLGCPAPGHL
BAE cells; cells harvested from a confluent monolayer
  percent spread BAE cells on substrate: approximately 60%
